Measured values published in US20090233795A1, “Fungicidal Mixtres Based On 3-Monosubstituted N-Bipenyl-Pyrazolecarboxamides” (BASF Akitengesellschaft, priority 2005, published 2009).
Read-outs that look alike come from different tables or passages of the source.

Assays:
Botrytis cinerea = assay: Activity against gray mold on bell pepper leaves, 1 day protective application; format: in vivo; conditions: sprayed 1 day before inoculation, rated after 5 days
Pyricularia oryzae = format: cell-based; conditions: microtiter plate, 405 nm, day 7
[1] = test system: Erysiphe [syn. Blumeria] graminis forma specialis. tritici; assay: Activity against mildew of wheat; format: in vivo; conditions: 1 mg/l, sprayed 24 hours before inoculation, rated after 7 days
Pyrenophora teres = assay: Activity against net blotch of barley, 1 day protective application; format: in vivo, Pyrenophora [syn. Drechslera] teres; conditions: sprayed 24 hours before inoculation, rated after 6 days
Septoria tritici = assay: Activity against the speckled leaf blotch pathogen in the microtiter test; format: cell-based; conditions: microtiter plate, 405 nm, day 7
Puccinia recondita [2] = assay: Curative activity against brown rust of wheat; format: in vivo; conditions: sprayed the day after inoculation, 7 days
Puccinia recondita [3] = assay: Protective activity against brown rust of wheat; format: in vivo; conditions: 16 mg/l, sprayed the day before inoculation

Cn1cc(C(=O)Nc2ccccc2-c2cccc(Cl)c2)c(C(F)(F)F)n1 [No. I.1, N-(3′-chlorobiphenyl-2-yl)-1-methyl-3-trifluoromethyl-1H-pyrazole-4-carboxamide]
melting point: 92 to 94 °C | Observed activity (% infection) (Botrytis cinerea; 1 mg/l): 0% | Observed activity (% infection) (Pyricularia oryzae; 4 mg/l): 0% | Observed activity (% infection) [1]: 0% | Observed activity (% infection) (Pyrenophora teres; 4 mg/l): 26%

Cn1cc(C(=O)Nc2ccccc2-c2cccc(C#N)c2)c(C(F)(F)F)n1 [No. I.5, 1-methyl-3-trifluoromethyl-N-(ortho-(3-cyanophenyl)phenyl)pyrazole-4-carboxamide]
melting point: 76 to 78 °C

Cn1cc(C(=O)Nc2ccccc2-c2cccc(F)c2)c(C(F)F)n1 [No. I.14, N-(3′-fluorobiphenyl-2-yl)-1-methyl-3-difluoromethyl-1H-pyrazole-4-carboxamide]
melting point: 130 to 135 °C

Cn1cc(C(=O)Nc2ccccc2-c2cccc(Cl)c2)c(C(F)F)n1 [No. I.12, N-(3′-chlorobiphenyl-2-yl)-1-methyl-3-difluoromethyl-1H-pyrazole-4-carboxamide]
melting point: 110 to 112 °C

Cn1cc(C(=O)Nc2ccccc2-c2cccc(Cl)c2)c(CF)n1 [No. I.11, N-(3′-chlorobiphenyl-2-yl)-1-methyl-3-fluoromethyl-1H-pyrazole-4-carboxamide]
melting point: 96 to 99 °C

zinc ammoniate ethylenebis(dithiocarbamate) [metiram, reference compound]
Observed activity (% infection) (Septoria tritici; 1 mg/l): 1% | Observed activity (% infection) (Pyricularia oryzae; 16 mg/l): 52%

Fc1ccc([C@]2(Cn3cncn3)O[C@H]2c2ccccc2Cl)cc1 (racemic) [epoxiconazole, (2RS,3SR)-1-[3-(2-chlorophenyl)-2,3-epoxy-2-(4-fluorophenyl)propyl]-1H-1,2,4-triazole]
Observed activity (% infection) (Pyrenophora teres; 1 mg/l): 0%

Cc1nn(C)cc1C(=O)Nc1ccccc1-c1cccc(Cl)c1 [No. I.10, N-(3′-chlorobiphenyl-2-yl)-1,3-dimethyl-1H-pyrazole-4-carboxamide]
melting point: 104 to 106 °C

CC1CCN(c2c(-c3c(F)cc(F)cc3F)c(Cl)nc3ncnn23)CC1 [5-chloro-7-(4-methylpiperidin-1-yl)-6-(2,4,6-trifluorophenyl)-[1,2,4]triazolo[1,5-a]pyrimidine, reference compound]
Observed activity (% infection) (Botrytis cinerea; 4 mg/l): 40% | Observed activity (% infection) (Puccinia recondita [2]; 1 mg/l): 0%

Cc1nn(C)c(F)c1C(=O)Nc1ccccc1-c1cccc(C(F)(F)F)c1 [No. I.17, N-(3′-trifluoromethylbiphenyl-2-yl)-1,3-dimethyl-5-fluoro-1H-pyrazole-4-carboxamide]
melting point: 113 to 114 °C

Cn1cc(C(=O)Nc2ccccc2-c2cccc(F)c2)c(CF)n1 [No. I.13, N-(3′-fluorobiphenyl-2-yl)-1-methyl-3-fluoromethyl-1H-pyrazole-4-carboxamide]
melting point: 138 to 141 °C

Cn1cc(C(=O)Nc2ccccc2-c2cccc(C(F)(F)F)c2)c(C(F)F)n1 [No. I.9, N-(3′-trifluoromethylbiphenyl-2-yl)-1-methyl-3-difluoromethyl-1H-pyrazole-4-carboxamide]
melting point: 124 to 125 °C | Observed activity (% infection) (Puccinia recondita [2]; 0.25 mg/l): 11% | Observed activity (% infection) [1]: 0%

COC(=O)N(OC)c1ccccc1COc1ccn(-c2ccc(Cl)cc2)n1 [pyraclostrobin, methyl N-{2-[1-(4-chlorophenyl)-1H-pyrazol-3-yloxymethyl]phenyl}(N-methoxy)carbamate, reference compound]
Observed activity (% infection) [1]: 40%

COc1ccc(C(=CC(=O)N2CCOCC2)c2ccc(Cl)cc2)cc1OC [dimethomorph, 3-(4-chlorophenyl)-3-(3,4-dimethoxyphenyl)-1-morpholin-4-yl-propenone]
Observed activity (% infection) (Puccinia recondita [2]; 1 mg/l): 0% | Observed activity (% infection) (Pyrenophora teres; 16 mg/l): 0%

Cn1cc(C(=O)Nc2ccccc2-c2cccc(C(F)(F)F)c2)c(C(F)(F)F)n1 [No. I.4, N-(3′-trifluoromethylbiphenyl-2-yl)-1-methyl-3-trifluoromethyl-1H-pyrazole-4-carboxamide]
melting point: 132 to 134 °C | Observed activity (% infection) (Septoria tritici; 0.25 mg/l): 20% | Observed activity (% infection) (Puccinia recondita [3]): 0%

Cc1nn(C)c(F)c1C(=O)Nc1ccccc1-c1cccc(C#N)c1 [No. I.15, N-(3′-cyanobiphenyl-2-yl)-1,3-dimethyl-5-fluoro-1H-pyrazole-4-carboxamide]
melting point: 137 to 138 °C

COc1cc(C)c(C(=O)c2c(OC)ccc(Br)c2C)c(OC)c1OC [metrafenone, 3′-bromo-2,3,4,6′-tetramethoxy-2′,6-dimethylbenzophenone]
Observed activity (% infection) (Puccinia recondita [2]; 1 mg/l): 0% | Observed activity (% infection) (Pyrenophora teres; 16 mg/l): 0%

Cc1nn(C)c(F)c1C(=O)Nc1ccccc1-c1cccc([N+](=O)[O-])c1 [No. I.16, N-(3′-nitrobiphenyl-2-yl)-1,3-dimethyl-5-fluoro-1H-pyrazole-4-carboxamide]
melting point: 137 to 139 °C

CC1(C)CC/C(=C\c2ccc(Cl)cc2)C1(O)Cn1cncn1 (stereo not shown) [triticonazole, (5E)-5-[(4-chlorophenyl)methylene]-2,2-dimethyl-1-(1H-1,2,4-triazol-1-ylmethyl)cyclopentanol, reference compound]
Observed activity (% infection) [1]: 40%
